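Cultured in 96-well plates, cells were exposed to test compound for 48 hours across five concentrations. TGI denotes the concentration required for complete inhibition of growth.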
Experiments:
Experiment in all cases: DTP human tumour cell line panel, 48 h
[1] = test system: SN12C renal
[2] = test system: NCI-H522 lung
[3] = test system: MOLT-4 leukemia
[4] = test system: UACC-62 melanoma
[5] = test system: T-47D breast
[6] = test system: HOP-92 NSCLC
[7] = test system: 786-0 renal
[8] = test system: EKVX NSCLC
[9] = test system: OVCAR-5 ovarian
[10] = test system: U251 CNS
[11] = test system: SR leukemia
[12] = test system: CCRF-CEM leukemia
[13] = test system: OVCAR-8 ovarian
[14] = test system: OVCAR-3 ovarian
[15] = test system: SF-539 CNS
[16] = test system: HCT-15 colon
[17] = test system: MCF7 breast
[18] = test system: NCI-H23 lung
[19] = test system: A549 NSCLC
[20] = test system: MDA-MB-231 breast
[21] = test system: ACHN renal
[22] = test system: HT29 colon
[23] = test system: DU-145 prostate
[24] = test system: HCT-116 colon
[25] = test system: HCC-2998 colon
[26] = test system: SNB-75 CNS
[27] = test system: LOX IMVI melanoma
[28] = test system: NCI/ADR-RES ovarian
[29] = test system: HL-60(TB) leukemia
[30] = test system: SF-268 CNS
[31] = test system: HS 578T breast
[32] = test system: HOP-62 NSCLC
[33] = test system: IGROV1 ovarian
[34] = test system: OVCAR-4 ovarian
[35] = test system: M14 melanoma
[36] = test system: NCI-H226 lung
[37] = test system: SK-MEL-5 melanoma
[38] = test system: SK-OV-3 ovarian
[39] = test system: NCI-H460 lung
[40] = test system: TK-10 renal
[41] = test system: SW-620 colon
[42] = test system: KM12 colon
[43] = test system: MDA-MB-435
[44] = test system: SK-MEL-2 melanoma
[45] = test system: COLO 205 colon
[46] = test system: RXF 393 renal
[47] = test system: MDA-N
[48] = test system: SNB-19 CNS
[49] = test system: SF-295 CNS
[50] = test system: SK-MEL-28 melanoma
[51] = test system: CAKI-1 renal
[52] = test system: PC-3 prostate
[53] = test system: UO-31 renal
[54] = test system: MALME-3M melanoma
[55] = test system: K-562 leukemia
[56] = test system: RPMI-8226 leukemia
[57] = test system: A498 renal
[58] = test system: BT-549 breast
[59] = test system: UACC-257 melanoma

In the case of `Cc1ccc(NC2=NCCO2)c2c1CCC2`, the TGI [1] is reported as greater than 100 µM, the TGI [2] is reported as greater than 100 µM and the TGI [3] is reported as greater than 100 µM. It also gave a TGI [4] greater than 100 µM, a TGI [5] greater than 100 µM and a TGI [6] of 70 µM. For the same compound, the TGI [7] was greater than 100 µM, the TGI [8] was greater than 100 µM and the TGI [9] was greater than 100 µM. The TGI [10] was greater than 100 µM, the TGI [11] was 53.3 µM and the TGI [12] was greater than 100 µM. It also gave a TGI [13] greater than 100 µM, a TGI [14] of 67.9 µM and a TGI [15] of 56 µM. It also gave a TGI [16] greater than 100 µM, a TGI [17] greater than 100 µM and a TGI [18] greater than 100 µM. The TGI [19] was greater than 100 µM, the TGI [20] was 69.4 µM and the TGI [21] was greater than 100 µM. It also gave a TGI [22] greater than 100 µM, a TGI [23] greater than 100 µM and a TGI [24] of 80 µM. It also gave a TGI [25] of 74.6 µM, a TGI [26] of 84.5 µM and a TGI [27] of 76 µM. For the same compound, the TGI [28] was 50 µM, the TGI [29] was 39.9 µM and the TGI [30] was greater than 100 µM. For the same compound, the TGI [31] was greater than 100 µM, the TGI [32] was greater than 100 µM and the TGI [33] was greater than 100 µM. It also gave a TGI [34] greater than 100 µM, a TGI [35] of 57 µM and a TGI [36] greater than 100 µM. The TGI [37] was 32.9 µM, the TGI [38] was greater than 100 µM and the TGI [39] was greater than 100 µM. For the same compound, the TGI [40] was greater than 100 µM, the TGI [41] was greater than 100 µM and the TGI [42] was 63.9 µM. It also gave a TGI [43] of 46.2 µM, a TGI [44] of 48.9 µM and a TGI [45] of 83.6 µM. The TGI [46] was greater than 100 µM, the TGI [47] was 38.5 µM and the TGI [48] was greater than 100 µM. For the same compound, the TGI [49] was greater than 100 µM, the TGI [50] was greater than 100 µM and the TGI [51] was greater than 100 µM. It also gave a TGI [52] greater than 100 µM, a TGI [53] greater than 100 µM and a TGI [54] of 92.4 µM. It also gave a TGI [55] greater than 100 µM, a TGI [56] greater than 100 µM and a TGI [57] greater than 100 µM.
With `COC(=O)C1=C(O)C(C(=O)OC)[C@]2(O)[C@@H](C(=O)OC)[C@H]1C[C@@H](c1ccccc1)[C@@H]2C(=O)OC` (stereo partly drawn) the TGI [1] was 32.1 µM, the TGI [2] was 20.6 µM and the TGI [3] was 55.6 µM. For the same compound, the TGI [4] was 25.1 µM, the TGI [5] was greater than 100 µM and the TGI [8] was 53.6 µM. For the same compound, the TGI [9] was 30.9 µM, the TGI [10] was 30.7 µM and the TGI [11] was 24.1 µM. The TGI [12] was 49.3 µM, the TGI [14] was 31.8 µM and the TGI [15] was 25.5 µM. It also gave a TGI [16] of 26.9 µM, a TGI [17] greater than 100 µM and a TGI [18] of 32.1 µM. It also gave a TGI [20] of 49.3 µM, a TGI [21] of 55.7 µM and a TGI [22] of 36.7 µM. The TGI [23] was 27 µM, the TGI [58] was 33.5 µM and the TGI [24] was 21.8 µM. The TGI [25] was 27.3 µM, the TGI [26] was greater than 100 µM and the TGI [27] was 39.3 µM. The TGI [29] was greater than 100 µM, the TGI [30] was 8.12 µM and the TGI [31] was 76.8 µM. For the same compound, the TGI [32] was 41.7 µM, the TGI [59] was 25.8 µM and the TGI [35] was 24.5 µM. It also gave a TGI [36] of 61.5 µM, a TGI [38] of 47.3 µM and a TGI [39] of 37.8 µM. It also gave a TGI [40] of 53.5 µM, a TGI [42] of 25.8 µM and a TGI [43] of 30.6 µM. For the same compound, the TGI [44] was 28.2 µM, the TGI [46] was 19.9 µM and the TGI [47] was 19.1 µM. It also gave a TGI [48] of 68.7 µM, a TGI [50] of 64.9 µM and a TGI [53] of 26.6 µM. The TGI [54] was 45.1 µM, the TGI [55] was 33.4 µM and the TGI [56] was 31.7 µM. For the same compound, the TGI [57] was 35.2 µM.

Source: PubChem BioAssay (NCI)
